Patent publication US8821568B2, “Implant modified with non-hydroxylated vitamin D precursors” (Numat Biomedical S.L., priority 2008, dated 2014)

How the values were obtained:
Format in all cases: cell-based, mouse
[1] = tested on: MC3T3-E1 cells; assay: ALP activity in cell monolayer on coated titanium implants; settings: Ti implants; day 21; UV-untreated; percentage of ethanol UV-untreated group set to 100%; mean±SEM
Procedure: (§1) To test the effect of the surface modification, 96-well plates were used. Ti disks were placed into the wells and treatments and UV-activation were performed over there. Cells grown onto untreated polystyrene tissue culture plastic (TCP) were added as a control for all the experiments. Cells were seeded at a density of 30,000 cells/cm^2 and they were maintained in α-MEM supplemented with 10% FCS and antibiotics. Culture media was collected after 48 hours, to test cytotoxicity and the production of the hydroxylated form of vitamin D, 25-D3. Cells were harvested after two days of culture using Trizol reagent (Roche Diagnostics, Mannheim, Germany), to analyze gene expression of several osteoblast differentiation markers and enzymes involved in vitamin D synthesis using real-time RT-PCR. On the other hand, MC3T3-E1 cells were harvested after 21 days to measure calcium content and ALP activity in the cell monolayer.
Cell monolayer was collected at 21 cell differentiation days and PBS 0.1% Triton X-100 was added to solubilize proteins. Cell lysates were put into freeze/thaw cycles (liquid nitrogen and 37° C. water bath) to improve protein recovery. After centrifugation at 33,000 g for 15 min at 4° C., supernatants acquired were assayed for ALP activity, calcium content and total protein determination. ALP activity was calculated by measuring the cleavage of p-Nitrophenyl Phosphate (pNPP) (Sigma, St. Louis, Mo., USA) in a soluble yellow end product which absorbs at 405 nm. A volume of 100 μl of this substrate was used in combination with 25 μl of each sample supernatant or standard point. The standard curve was prepared from calf intestinal alkaline phosphatase (CIAP, 1 U/μl) (Promega, Madison, Wis., USA) by mixing 1 μl from the stock CIAP with 5 ml of alkaline phosphatase buffer (1:5000 dilution), and then making 1:5 serial dilutions. Once the reaction was carried out, after 30 min in dark at room temperature, it was stopped with the addition of 50 μl of 3 M sodium hydroxide. At this point, absorbance was read at 405 nm.
Total protein was determined using a BCA protein assay kit (Pierce, Rockford, Ill., USA). For the analysis, cell supernatants were diluted 1:1 in PBS 0.1% Triton X-100. Standard curve and samples were analyzed as described by the manufacturer and reading the absorbance at 562 nm.

[2] = tested on: MC3T3-E1 cells; assay: Real-time RT-PCR of bone markers, plastic wells; settings: TCP; 2 days; 2×10^−2 nmols, not irradiated, compared to control
Procedure: (§2) To test the effect of the different treatments onto the plastic wells, 96-well plates made of polystyrene were used and the treatments with 7-DHC performed directly onto them. Cells grown onto untreated TCP were added as a control for all the experiments. Cells were seeded at a density of 30,000 cells/cm^2 and they were maintained in α-MEM supplemented with 10% FCS and antibiotics. Culture media was collected after 48 hours, to test cytotoxicity and the production of the hydroxylated forms of vitamin D. Cells were harvested after 2 days of culture using Trizol reagent (Roche Diagnostics, Mannheim, Germany), to analyse early gene expression response of several osteoblast differentiation markers and enzymes involved in vitamin D synthesis using real-time RT-PCR.
(§3) RNA was isolated from cells using a monophasic solution of phenol and guanidine thiocyanate (Trizol, Roche Diagnostics, Mannheim, Germany) according to the manufacturer's protocol. RNA was quantified at 260 nm using a Nanodrop spectrophotometer (NanoDrop Technologies, Wilmington, Del., USA).
(§4) Total RNA previously isolated was reverse-transcribed to cDNA using High Capacity RNA to cDNA kit (Applied Biosystems, Foster City, Calif.) according to the protocol of the supplier. The same amount of total RNA from each sample was converted into cDNA. Each cDNA was diluted ¼ and aliquots were stored at −20° C. until the PCR reactions were carried out.
(§5) Real-time RT-PCR was performed for two reference genes: 18S ribosomal RNA (18S rRNA), glyceraldehyde-3-phosphate dehydrogenase (GAPDH), and 11 target genes alkaline phospathase (ALP), Interleukin 6 (IL-6), Collagen (Coll-1), Osteocalcin (OC), Bone Morphogenetic Protein 2 (BMP-2), Osterix (Osx), Receptor activator of nuclear factor kappa-B ligand (RANKL), Osteoprogesterin (OPG) and genes involved in vitamin D synthesis such as Vitamin D3 25-hydroxylase (CYP27A1), 25 hydroxyvitamin D3-1-alpha hydroxylase (CYP27B1) and 1,25-dihydroxyvitamin D3 24-hydroxylase (CYP24A1).
(§6) Real-time PCR were performed in the Lightcycler 480® (Roche Diagnostics, Germany). Each reaction contained 5 μl of LightCycler-FastStart DNA Master^PLUS SYBR Green I (Roche Diagnostics, Mannheim, Germany), 0.5 μM of the sense and antisense specific primers (Table 1) and 3 μl of the cDNA dilution in a final volume of 10 μl. The normal amplification program consisted of a preincubation step for denaturation of the template cDNA (10 min 95° C.), followed by 45 cycles consisting of a denaturation step (10 s 95° C.), an annealing step (10 s 60° C., except for ALP that was 10 s at 65° C., OSX with 10 s at 68° C. and CYP24A1 at 58° C. 10 s) and an extension step (10 s 72° C.). After each cycle, fluorescence was measured at 72° C. Every run included a negative control without cDNA template. To confirm amplification specificity, PCR products were subjected to a melting curve analysis on the LightCycler and subsequently 2% agarose/TAE gel electrophoresis, Tm and amplicon size, respectively.
(§7) To allow relative quantification after PCR, real-time efficiencies were calculated from the given slopes in the LightCycler 480 software (Roche Diagnostics, Mannheim, Germany) using serial dilutions. Relative quantification after PCR was calculated by normalizing target gene concentration in each sample by the concentration mean of the two reference genes in given sample using the “advanced relative quantification method” provided by the LightCycler 480 analysis software.

[3] = tested on: MC3T3-E1 cells; assay: ELISA of 25-D3 and 1,25-D3 released to the culture media, plastic wells; settings: TCP; 48 hours; 2×10^−2 nmols, not irradiated; mean±SEM
Procedure: as §2
25-D3 and 1,25-D3 released to the culture media after two days of treatment were analyzed by enzyme-linked immunosorbent assay (ELISA). Aliquots from the culture media were centrifuged at 1800 rpm for 5 minutes at 4° C. and supernatants were used for 25-D3 and 1,25-D3 determination following instructions described by the manufacturer (Immunodiagnostic Systems Ltd, Boldon, Tyne and Wear, UK).

[4] = tested on: MC3T3-E1 cells; assay: Calcium content (mineralization, ICP-AES) on coated titanium implants; settings: Ti implants; 28 days; UV-untreated; data not shown
Procedure: as §1, with “On the other hand, MC3T3-E1 cells were harvested after 21 days to measure calcium content and ALP activity in the cell monolayer.” left out
[…] Cell lysates were put into freeze/thaw cycles (liquid nitrogen and 37° C. water bath) to improve protein recovery. […] ALP activity was calculated by measuring the cleavage of p-Nitrophenyl Phosphate (pNPP) (Sigma, St. Louis, Mo., USA) in a soluble yellow end product which absorbs at 405 nm. […] At this point, absorbance was read at 405 nm.
To determine calcium content samples were analyzed by inductively coupled plasma atomic emission spectrometry (Optima 5300 DV, PerkinElmer, Massachussetts, USA). […]

[5] = tested on: MC3T3-E1 cells; assay: Real-time RT-PCR of vitamin D hydroxylation/degradation enzymes (CYP27A1, CYP27B1, CYP24A1), plastic wells; settings: TCP, 2×10^−2 nmols, not irradiated
Procedure: as §2, §3, §4, §5
Real-time PCR were performed in the Lightcycler 480® (Roche Diagnostics, Germany). […] After each cycle, fluorescence was measured at 72° C. […]
as §7

[6] = tested on: MC3T3-E1 cells; assay: Real-time RT-PCR of osteoblast differentiation markers, coated titanium implants; settings: Ti implants; 48 h; 2×10^−2 nmols, no UV, compared to control
Procedure: as §1, §3, §4
as §6, with “Real-time RT-PCR was performed for two reference genes: 18S ribosomal RNA (18S rRNA), glyceraldehyde-3-phosphate dehydrogenase (GAPDH); and eleven target genes: alkaline phosphathase (ALP), Interleukin 6 (IL-6), Collagen (Coll-1), Osteocalcin (OC), Bone Morphogenetic Protein 2 (BMP-2), Osterix (Osx), Receptor activator of nuclear factor kappa-B ligand (RANKL), Osteoprogesterin (OPG) and genes involved in vitamin D synthesis such as Vitamin D3 25-hydroxylase (CYP27A1) and 25 hydroxyvitamin D3-1-alpha hydroxylase (CYP27B1). Real-time” for “Real-time”, “C.)” for “C. and CYP24A1 at 58° C. 10 s)”
To allow relative quantification after PCR, real-time efficiencies were calculated from the given slopes in the LightCycler 480 software (Roche Diagnostics, Mannheim, Germany) using serial dilutions. Relative quantification after PCR was calculated by normalizing target gene concentration in each sample by the concentration mean of the two reference genes in given sample using the Advanced relative quantification method provided by the LightCycler 480 analysis software.

| SMILES | ALP activity [1] [%] | IL-6 expression levels [2] | 1,25-D3 detected in culture media [3] [pmol/L] | 25-D3 released to culture media [3] [nmol/L] | Calcium levels [4] | CYP27B1 mRNA expression ([5]; 48 h) | CYP24A1 mRNA levels ([5]; 2 days, data not shown) | RANKL gene expression [6] |
| --- | --- | --- | --- | --- | --- | --- | --- | --- |
| C=C1CC[C@H](O)C/C1=C/C=C1\CCC[C@]2(C)[C@@H]([C@H](C)CCCC(C)(C)O)CC[C@@H]12 [25-D3, 25-hydroxyvitamin D3, reference compound] | 77.40±13.40 | significantly higher expression levels | 42 ± 4 | 415 ± 20 | trend to increased calcium levels | not statistically different | only detected |  |
| C=C1CC[C@H](O)C/C1=C/C=C1\CCC[C@]2(C)[C@@H]([C@H](C)CCCC(C)C)CC[C@@H]12 [D3, cholecalciferol, reference compound] | 35.28±4.23 |  | 19.7 ± 0.7 | 9.1 ± 1.9 |  |  |  | Statistical significances |
